Drawing on paper PMC5243976 (Iranian Journal of Basic Medical Sciences, 2017), this text covers IC50 for ten compounds.

Usually IC50 stands for the concentration at which inhibition is half-maximal.

Structures are written as SMILES.

In this assay the target is acetylcholinesterase from electric eel source (AChE, E.C. 3.1.1.7, Type V-S) (Electrophorus electricus, UniProt O42275). Description: Ellman test, anti-acetylcholinesterase activity. The format is biochemical. Background: Ellman's reagent forms a yellow product with free thiols.
acetylcholinesterase from electric eel source (AChE, E.C. 3.1.1.7, Type V-S), sequence (O42275 24-633): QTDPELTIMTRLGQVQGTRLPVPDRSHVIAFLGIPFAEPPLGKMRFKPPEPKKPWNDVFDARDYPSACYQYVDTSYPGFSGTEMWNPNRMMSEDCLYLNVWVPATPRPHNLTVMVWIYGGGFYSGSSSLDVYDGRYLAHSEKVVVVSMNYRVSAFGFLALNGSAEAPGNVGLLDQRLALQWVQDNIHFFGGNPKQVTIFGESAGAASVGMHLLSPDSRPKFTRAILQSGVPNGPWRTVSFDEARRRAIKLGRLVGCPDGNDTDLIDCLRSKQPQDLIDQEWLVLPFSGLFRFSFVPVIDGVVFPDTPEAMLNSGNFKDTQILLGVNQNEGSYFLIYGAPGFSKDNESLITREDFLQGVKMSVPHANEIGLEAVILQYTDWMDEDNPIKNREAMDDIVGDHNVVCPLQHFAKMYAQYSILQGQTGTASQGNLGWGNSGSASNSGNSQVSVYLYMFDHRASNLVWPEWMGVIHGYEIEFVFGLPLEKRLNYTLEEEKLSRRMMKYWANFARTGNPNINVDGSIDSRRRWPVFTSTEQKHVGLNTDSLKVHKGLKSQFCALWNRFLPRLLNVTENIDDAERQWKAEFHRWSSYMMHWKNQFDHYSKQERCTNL
For `COc1ccccc1C(=O)N1CCN(CCN2C(=O)c3ccccc3C2=O)CC1` [Compound 4g, 2-(2-(4-(2-Methoxybenzoyl)piperazin-1-yl)ethyl) isoindoline-1,3-dione], the IC50 came out at 100 µM.

Take `O=C(c1ccc(Cl)cc1)N1CCN(CCN2C(=O)c3ccccc3C2=O)CC1` [Compound 4c, 2-(2-(4-(4-Chlorobenzoyl)piperazin-1-yl)ethyl) isoindoline-1,3-dione]: the IC50 was over 1000 µM.

Turning to `O=C(c1ccc(F)cc1)N1CCN(CCN2C(=O)c3ccccc3C2=O)CC1` [Compound 4f, 2-(2-(4-(4-Fluorobenzoyl)piperazin-1-yl)ethyl) isoindoline-1,3-dione], it took 50.6 µM to reach half-maximal inhibition (IC50).

On to `COc1cccc(C(=O)N2CCN(CCN3C(=O)c4ccccc4C3=O)CC2)c1` [Compound 4h, 2-(2-(4-(3-Methoxybenzoyl)piperazin-1-yl)ethyl) isoindoline-1,3-dione], for which the IC50 was determined as 1.3 µM.

As to `O=C(c1cccc(F)c1)N1CCN(CCN2C(=O)c3ccccc3C2=O)CC1` [Compound 4e, 2-(2-(4-(3-Fluorobenzoyl)piperazin-1-yl)ethyl) isoindoline-1,3-dione], 0.0071 µM corresponded to half-maximal inhibition (IC50).

The compound `O=C(c1cccc(Cl)c1)N1CCN(CCN2C(=O)c3ccccc3C2=O)CC1` [Compound 4b, 2-(2-(4-(3-Chlorobenzoyl)piperazin-1-yl)ethyl) isoindoline-1,3-dione] gave an IC50 of 70.2 µM.

Regarding `O=C(c1ccccc1F)N1CCN(CCN2C(=O)c3ccccc3C2=O)CC1` [Compound 4d, 2-(2-(4-(2-Fluorobenzoyl)piperazin-1-yl)ethyl) isoindoline-1,3-dione], the IC50 was 3.6 µM.

On to `O=C(c1ccccc1[N+](=O)[O-])N1CCN(CCN2C(=O)c3ccccc3C2=O)CC1` [Compound 4j, 2-(2-(4-(2-Nitrobenzoyl)piperazin-1-yl)ethyl) isoindoline-1,3-dione], for which inhibition was half-maximal at 141 µM (IC50).

For `COc1ccc(C(=O)N2CCN(CCN3C(=O)c4ccccc4C3=O)CC2)cc1` [Compound 4i, 2-(2-(4-(4-Methoxybenzoyl)piperazin-1-yl)ethyl) isoindoline-1,3-dione], it took 0.0203 µM to reach half-maximal inhibition (IC50).

On to `O=C(c1ccccc1Cl)N1CCN(CCN2C(=O)c3ccccc3C2=O)CC1` [Compound 4a, 2-(2-(4-(2-Chlorobenzoyl)piperazin-1-yl)ethyl) isoindoline-1,3-dione], for which the IC50 came to 333 µM.
